ChEMBL document CHEMBL5338712, “Influence of chain length on the anticancer activity of the antimicrobial peptide CAMEL with fatty acid modification” (Eur J Med Chem, 2022)
In brackets after ≈: the same amount, converted by molar mass. Activity calls are given as the source filed them. The calls are words filed in the database; no cut-off is given here. Where a SMILES comes first, the peptide text is derived from it. The star is where a group is joined. Decanoyl = CCCCCCCCCC(=O)*; Cbz = O=C(OCc1ccccc1)*; Butyryl = CCCC(=O)*; CH2F = FC*

Key:
Staphylococcus aureus = test: Antibacterial activity against Staphylococcus aureus ATCC […] assessed as reduction in bacterial growth measured for 18 hrs by serial dilution method; assay type: functional
B16-F10 [1] = test: Cytotoxicity against mouse B16-F10 cells assessed as reduction in cell viability measured after 1 hrs by MTT assay; assay type: functional, cell-based; details: dose 1.25-20 µM
B16-F10 [2] = test: Cytotoxicity against mouse B16-F10 cells assessed as reduction in cell viability at 1.25 to 20 uM measured after 24 hrs by MTT assay; assay type: functional, cell-based; details: dose 1.25-20 µM
B16-F10 [3] = test: Membrano-lytic activity in mouse B16-F10 cell membrane measured after 1 hr by LDH leakage assay; assay type: cell-based; details: dose 1.25-20 µM
trypsin = trypsin (Homo sapiens, UniProt P07477+P07478+P35030); test: Stability of compound assessed as trypsin (unknown origin)-mediated compound degradation measured upto 6 hrs by RP-HPLC analysis; assay type: ADME, protein assay; details: trypsin (enzyme solution), read-out: Drug degradation
Escherichia coli = test: Antibacterial activity against Escherichia coli ATCC 25922 assessed as reduction in bacterial growth measured for 18 hrs by serial dilution method; assay type: functional
B16-F10 [4] = test: Membrano-lytic activity in mouse B16-F10 cell membrane at 1.25 to 20 uM measured after 1 hr by LDH leakage assay; assay type: cell-based; details: dose 1.25-20 µM
B16-F10 [5] = test: Cytotoxicity against mouse B16-F10 cells assessed as induction of cell death measured for 4 to 24 hrs by MTT assay; assay type: functional, cell-based; details: time 4-24 hrs
[6] = Self-assembly behavior of compound in saline solution assessed as critical micelle concentration by spectrophotometer analysis; assay type: physicochemical; details: buffer

CCCC(=O)N[C@@H](CCCCN)C(=O)N[C@@H](Cc1c[nH]c2ccccc12)C(=O)N[C@@H](CCCCN)C(=O)N[C@@H](CC(C)C)C(=O)N[C@@H](Cc1ccccc1)C(=O)N[C@@H](CCCCN)C(=O)N[C@@H](CCCCN)C(=O)N[C@H](C(=O)NCC(=O)N[C@@H](C)C(=O)N[C@H](C(=O)N[C@@H](CC(C)C)C(=O)N[C@@H](CCCCN)C(=O)N[C@H](C(=O)N[C@@H](CC(C)C)C(N)=O)C(C)C)C(C)C)[C@@H](C)CC (Butyryl-KWKLFKKIGAVLKVL-NH2)
MIC (Staphylococcus aureus): 2 µM (≈ 3.68 µg/mL)
Activity (B16-F10 [1]): Dose-Dependent Effect
Activity (B16-F10 [2]): Active
Activity (B16-F10 [3]): Dose-Dependent Effect
metabolised at 6 h (trypsin): 100%
MIC (Escherichia coli): 4 µM (≈ 7.36 µg/mL)
Activity (B16-F10 [4]): Active

COC(=O)C[C@H](NC(=O)[C@H](C)NC(=O)[C@@H](NC(=O)OCc1ccccc1)C(C)C)C(=O)CF (Cbz-Val-Ala-Asp(OMe)-CH2F)
Activity (B16-F10 [5]): Active

CCCCCCCCCC(=O)N[C@@H](CCCCN)C(=O)N[C@@H](Cc1c[nH]c2ccccc12)C(=O)N[C@@H](CCCCN)C(=O)N[C@@H](CC(C)C)C(=O)N[C@@H](Cc1ccccc1)C(=O)N[C@@H](CCCCN)C(=O)N[C@@H](CCCCN)C(=O)N[C@H](C(=O)NCC(=O)N[C@@H](C)C(=O)N[C@H](C(=O)N[C@@H](CC(C)C)C(=O)N[C@@H](CCCCN)C(=O)N[C@H](C(=O)N[C@@H](CC(C)C)C(N)=O)C(C)C)C(C)C)[C@@H](C)CC (Decanoyl-KWKLFKKIGAVLKVL-NH2)
CMC [6]: 32.61 µM
